Experimental data taken from ChEMBL document CHEMBL1148031, “Rational design of inhibitors of VirA-VirG two-component signal transduction” (Bioorg Med Chem Lett, 2007).

Tested on: Agrobacterium tumefaciens
Experiment: Inhibition of acetosyringone-induced virB::lacZ expression in Agrobacterium tumefaciens A348/pSW209
Type: functional, organism-based

Compound | IC50 [µM]
CCCCC(=O)c1c(C=O)cc(OC)cc1OC | 10
O=Cc1ccccc1C(=O)O | > 200
O=CC(=O)c1ccccc1 [PHENYLGLYOXAL] | 40
O=CC(=O)Oc1ccccc1 | 25
O=CC(=O)N(O)c1ccccc1 | 25
CC(=O)c1ccccc1C=O | 25
CCCCC(=O)c1cc(OC)cc(OC)c1C=O | 10
O=CC(=O)Nc1ccccc1 | 35
O=CCC(=O)N(O)c1ccccc1 | > 400
CCCCC(=O)c1ccccc1C=O | 20
COc1ccccc1C(=O)C=O | 34
COc1ccc(N(O)C(=O)C=O)c(O)c1 | 30
COc1cc(C=O)c(C(C)=O)c(OC)c1 | 25
COc1cc(C=O)cc(OC)c1 | > 200
COc1cc(OC)c(C=O)c(C(=O)O)c1 | 8
COc1ccc(N(OC)C(=O)C=O)c(O)c1 | < 1
COc1cc(CC(=O)O)c(C=O)c(OC)c1 | > 200
CCCCC(=O)c1c(OC)cc(OC)cc1C(=O)O | > 200
O=C1OC(O)c2ccccc21 (configuration not stated) | 25
COc1ccc(C=O)c(OC)c1 | > 200

Results, then the compound that gave them:

IC50 [µM] | Compound
> 200 | COc1cc(OC)c2c(c1NC(C)=O)C(=O)OC2O (configuration not stated)
> 200 | COc1cc(OC)c(C(C)=O)c(C(=O)O)c1
41 | COc1ccc2c(c1)C(O)OC2=O (configuration not stated)
> 100 | COc1cc(OC)c2c(c1O)C(=O)OC2O (configuration not stated)
8 | CCOc1cc(OCC)c2c(c1)C(=O)OC2O (configuration not stated)
> 200 | COc1ccc2c(c1)C(=O)OC2O (configuration not stated)
> 200 | COc1cccc2c1C(=O)OC2O (configuration not stated)
> 200 | COc1cccc2c1C(O)OC2=O (configuration not stated)
> 200 | COc1cc(OC)c([N+](=O)[O-])c2c1C(O)OC2=O (configuration not stated)
> 200 | COc1cc(OC)c2c(c1N)C(=O)OC2O (configuration not stated)
25 | COc1cc(OC)c(C=O)c(C(C)=O)c1
> 200 | COc1cc(OC)c(C(C)=O)c(C(C)=O)c1
